Test results from US6855353B2, “Method for producing antioxidant and prevention of cancer” (priority 2002, dated 2005).

Legend:
[1] = tested on: 17p in gastric cancer cells; assay: Effect of RES on 17p allelic loss (PCR-SSCP); assay type: cell-based
Description: (§1) The gastric cancer cells and normal cells were cultured in RPMI 1640 medium supplement with 10% fetal bovine serum. All the exons of the p^53 gene were amplified by the polymease chain reaction (PCR) using specific oligonucleotide primers. The PCR products were subjected to single-strand conformation polymorphism (SSCP) analysis.

c-myb RNA = assay: Inhibition of oncogene expression in ML-1 cells (northern blot): c-myb; assay type: cell-based, Human
Description: (§2) Human myeloblastic leukemic cell (ML-1) had been described previously. Cells were maintained in suspension culture in RPMI 1640 medium supplemented with 7.5% heat-inactivated FBS. Cells growth and viability were assayed by hemocytometer using trypan blue dye exclusion.
(§3) RNA was isolated by the CsCl gradient modification. RNA pellets were washed twice by reprecipitation in ethanol and quantitated by absorbency at […]. RNA analyzed by electrophoresis of 15 μg of RNA through 1.2% agarose formaldehyde gels followed by northern blot transfer to nitrocellulose.
(§4) Single-standard uniformly labeled DNA probes were prepared. Probe of c-myc was a 1.7 Kb cla-Eco RI restriction fragment containing the 3′exon region of human c-myc and probe of c-myb was 1.0 Kb myb-specific Bam HI fragment. Probes for n-ras contained DNA fragments using a modification of the PCR technique. Probes for myb, myc and n-ras were isolated by electrolution. The isolated fragments were labeled to high specific activity with [α^32P]-dCTP (3000 ci/mmol). Prehybridization of the filter was performed. The hybridization mixer contained 50,000 cpm of probe. The probes were hybridized at 58° C. in 15 mM NaCl, […] sodium citrate for 3 hours. After hybridization, they were exposed to XAR-5 film. Oncogene expression was quantitated by densitometer scanning of the autoradiography.

Aminopyrine demethylase = assay: Effect of RES on hepatic microsomal monooxygenases: aminopyrine demethylase; assay type: in vivo; details: rat liver microsomes
Description: (§5) In the present study, the effect of RES on the activities of hepatic microsomal monooxygenases was examined.
(§6) Microsomal preparations—the microsomes used were prepared from rat's liver. The liver was thoroughly perfused in situ with more than 200 ml of 0.9% NaCl solution. The liver was excised, and homogenized with 4 volumes of isotonic (1.15%) KCl solution in a Potter glass homogenizer. The homogenate was centrifuged at 12,000×g for 25 minutes in a refrigerated centrifuge, and the precipitate was discarded. The microsomes were sedimented by centrifugation at 78,000×g for 90 minutes in a Hitachi model 40P preparative ultracentrifuge. The firmly packed pellet of microsomes was resuspended in isotonic KCl solution with the Potter homogenizer and again centrifuged as above. The washed microsomes were finally suspended in isotonic KCl, usually at a concentration of 10 mg of protein per ml. The resultant microsomal suspensions were stored at 4° C. and used within 2 to 3 days. In these preparations isotonic KCl was employed, instead of the more usual 0.25 M sucrose, so as to minimize the adsorption of hemoglobin on microsomes.
(§7) Cytochrome P-450, NADPH-cytochrome creductase, aminoyrine demethylase and benzpyrene hydroxylase determined as previously described. Other methods are as same as above section.

GSH-Px [2] = assay: Effect of RES on GSH-Px activity in tissues after 30 days feeding; assay type: in vivo; details: 0.2% RES solution as drinking water up to 30 days
Description: Glutathion peroxidase (GSH-Px) is an important enzyme, which has a high activity in cancer tissues.
Twenty animals were divided into two groups of ten each and fed with either normal drinking water (control group) or 0.2% of RES solution (experimental group); this defined feeding regimen was continued up to 30 days. At the end of the feeding regimen, the animals were sacrificed, and whole skin, small bowel, liver, and lung were removed and immediately placed in ice-cold 0.1 M phosphate buffer, pH 7.4. Tissues were cleaned properly, minced and homogenized in the same buffer, and a 100,000×g supernatant fraction was prepared as described earlier. GSH-Px and GSH-r activities were measured.

Benzpyrene hydroxylase = assay: Effect of RES on hepatic microsomal monooxygenases: benzpyrene hydroxylase; assay type: in vivo; details: rat liver microsomes
Description: as §5, §6, §7

SOD = assay: Effect of RES on super-oxidation during reperfusion of ischemia heart: SOD; parameters: species or system rats
Description: (§8) H2O2 in the body is cleared by catalase and glutathione peroxidase (GSH-Px) catalysis. In myocardium, catalase activity of GSH-Px was lower.
(§9) In the present study we examined the effect of RES on super-oxidation during reperfusion of ischemia heart.
(§10) Male rats (280 to 320 g body weight) of Spague-Dawley strain maintained on a standard diet were used in these experiments. The rats were lightly anesthetized with diethyl ether, the left femoral vein was exposed and heparin (200 IU) was administered intravenously. 1 minute after administration of heparin the heart was excised and placed in ice cool perfusion medium until contraction had ceased. The heart was then mounted on the perfusion apparatus.
(§11) Langendorff perfusion for an initial 10 min. period, the perfusion was continued as a working preparation for an additional 30 min. The hearts were all electrically paced at between 265 and 275 beats/min during working perfusion.
(§12) The perfusate was Krebs-Henseleit bicarbonate buffer gassed with 95% oxygen and 5% carbon dioxide. This perfusate contained 11 mM D-glucose during the Langendorff perfusion.
(§13) Aortic pressure, heart rates, coronary flows and aortic outputs were monitored during perfusion. […] The perfusate of control group contained buffer only. At the end the frozen hears were store in liquid nitrogen until assayed for metabolic intermediates. […]

GSH-Px [3] = assay: Effect of RES on super-oxidation during reperfusion of ischemia heart: GSH-Px; parameters: species or system rats
Description: as §8, §9, §10, §11, §12, §13

[4] = tested on: NNK-induced lung tumorigenesis; assay: NNK-induced lung tumorigenesis; assay type: in vivo, mice; details: RES by injection 20 mg/kg daily; 10 μmol NNK i.p.; pulmonary adenomas counted after sixteen weeks
Description: The capacity of tobacco-specific nitrosamine 4-(methylnitrosamino)-1-(3-pyridyl)-1-butanone (NNK) to induce tumor incidence was recognized several years ago. Every group had 20 mice. For treatment group, each mouse was gave RES by injection at dose of 20 mg/kg daily. For control group, each mouse was gave same volume of physiological saline. Three days later, mice were gave 10 μmol NNK (in 0.1 ml saline) by i.p. injection. Sixteen weeks after these treatments the mice were killed and pulmonary adenomas were counted. The statistical significance of bioassay data was determined by student's test.

[5] = tested on: p53 gene in gastric cancer cells; assay: Effect of RES on p53 allelic loss (PCR-SSCP); assay type: cell-based
Description: as §1

[6] = tested on: bovine aortic smooth muscle cell modified LDL; assay: Effect of RES on lower density lipoprotein oxidation (MDA); assay type: cell-based; details: LDL + 100 μg RES/ml, 37° C., 24 h; x ± s
[7] = tested on: NADPH-cytochrome Creductase; assay: Effect of RES on hepatic microsomal monooxygenases: NADPH-cytochrome c reductase; assay type: in vivo; details: rat liver microsomes
Description: as §5, §6, §7

n-ras RNA = assay: Inhibition of oncogene expression in ML-1 cells (northern blot): n-ras; assay type: cell-based, Human
Description: as §2, §3, §4

Cytochrome P-450 = assay: Effect of RES on hepatic microsomal monooxygenases: cytochrome P-450; assay type: in vivo; details: rat liver microsomes
Description: as §5, §6, §7

Lipoperoxides = assay: Effect of RES on peroxidation (hepatic lipoperoxide content, CCl4-induced hepatic damage); assay type: in vivo
Description: The experiments were performed as previously described. Hepatic lipoperoxide content was determined as described by Uchiyama.
In the present study, the effect of RES on lipoperoxides was examined.
It is known that the pathogenesis of CCl4—induced hepatic damage involved reactive oxidant species increasing from the metabolism. The liver injure caused by CCl4 is due to the formation of a reactive toxic metabolite by the hepatic cytochrome P-450 system.

c-myc RNA = assay: Inhibition of oncogene expression in ML-1 cells (northern blot): c-myc; assay type: cell-based, Human
Description: as §2, §3, §4

mouse epidermis = assay: Rate of [3H] thymidine incorporation in normal and TPA-stimulated mouse epidermis; assay type: in vivo
Description: It is known that tetradecanoyphorbol-13-acetate (TPA) is strong tumor promoter and TPA can remarkable increase [^3H] thymidine incorporation in mouse epidermis and then to induce Epidermis cancer.
Mice were treated with TPA and the rate of [^3H] thymidine incorporation was determined 20 hours later. Male mice (7-9 weeks old) used for experiments. Only mice showing no hair regrowth following shaving were used. Animals were injected intraperitoneally (i.p.) with TPA or […]. After 20 hours, mice were injected i.p. with 60 μCi of [^3H] thymidine (2 Ci/mmol) 20 minutes before sacrifice. Epidermal scrapings were prepared. Homogenized in distilled water at 4° C., and the macromolecules precipitated with 0.4 N trichloracetic acid (TCA). Following 6 washes with 0.2 N TCA at 4° C. and 2 washes with absolute ethanol at room temperature, the nucleic acids were hydrolyzed with 0.5 N TCA at 90° C. for 5 minutes. The hydrolysates (0.2 ml aliquots) were counted in a scintillation counter and assayed for DNA. Each value is the mean±range for three separately treated mice. Each counted aliquot (0.2 ml) contained approximately 10 μg of DNA.

[8] = gastric cancer cells treated by RES
[9] = gastric cancer cells treated by RES vs no drug
[10] = ischemia heart, perfusate with 0.05 mg of RES/ml
[11] = pre-perfusion with 4×10^−6 g of RES/ml

## Oc1ccc(/C=C/c2cc(O)cc(O)c2)cc1 [RES, resveratol]
[1]; [8]
  Frequency of 17p allelic loss: 18.8%
[1]; [9]
  Inhibition T/C (17p allelic loss): 49%
c-myb RNA
  Inhibition (%) c-myb RNA: 25.6 ± 3.5%
Aminopyrine demethylase
  Aminopyrine demethylase: 170.0 ± 18 nmol HCHO/mg protein
GSH-Px [2]; liver
  GSH-Px activity, Liver: 34 ± 50 n mol NADPH oxidized/mg protein/min
GSH-Px [2]; lung
  GSH-Px activity, Lung: 22 ± 3.5 n mol NADPH oxidized/mg protein/min
GSH-Px [2]; skin
  GSH-Px activity, Skin: 260 ± 30 n mol NADPH oxidized/mg protein/min
Benzpyrene hydroxylase
  Benzpyrene hydroxylase: 48.9 ± 5.8 nmol/mg protein
SOD; [10]
  SOD activity: 10.5 ± 1.2 μg/protein
SOD; [11]
  SOD activity versus control group: significantly higher
GSH-Px [3]; [10]
  GSH-Px: 18.9 ± 2.0 μ/g.w
GSH-Px [3]; [11]
  GSH-Px activity versus control group: significantly higher
[4]
  Tumor incidence: 28.5 ± 3.0%
[5]; [8]
  Frequency of p53 allelic loss: 12%
[5]; [9]
  Inhibition T/C (p53 allelic loss): 36%
[6]
  MDA: 2.75 ± 0.29 nmol/mg protein
[7]
  NADPH-cytochrome Creductase: 198.5 ± 20 nmol/mg protein
n-ras RNA
  Inhibition (%) n-ras RNA: 35.7 ± 3.8%
Cytochrome P-450
  Cytochrome P-450: 2.65 ± 0.35 nmol/mg protein
Lipoperoxides; 1h
  Lipoperoxides T/C, 1h: 87%
Lipoperoxides; 1 h, CCl4-induced hepatic damage
  Lipoperoxides, 1 h: 0.65 ± 0.07 mmol MDA/g liver protein
Lipoperoxides; 3h
  Lipoperoxides T/C, 3h: 72%
Lipoperoxides; 3 h, CCl4-induced hepatic damage
  Lipoperoxides, 3 h: 0.62 ± 0.069 mmol MDA/g liver protein
Lipoperoxides; 6h
  Lipoperoxides T/C, 6h: 55%
Lipoperoxides; 6 h, CCl4-induced hepatic damage
  Lipoperoxides, 6 h: 0.60 ± 0.70 mmol MDA/g liver protein
Lipoperoxides; 12h
  Lipoperoxides T/C, 12h: 40%
Lipoperoxides; 12 h, CCl4-induced hepatic damage
  Lipoperoxides, 12 h: 0.59 ± 0.60 mmol MDA/g liver protein
Lipoperoxides; 24h
  Lipoperoxides T/C, 24h: 22%
Lipoperoxides; 24 h, CCl4-induced hepatic damage
  Lipoperoxides, 24 h: 0.58 ± 0.58 mmol MDA/g liver protein
c-myc RNA
  Inhibition (%) c-myc RNA: 30.1 ± 4.2%
Mouse epidermis; TPA-stimulated mouse epidermis, 20 hours after TPA
  Specific activity, [3H] thymidine incorporation, TPA: 33.0 ± 4.5 cpm/μg DNA
Mouse epidermis; normal mouse epidermis
  Specific activity, [3H] thymidine incorporation, Normal: 32.2 ± 4.0 cpm/μg DNA
